From US11833139B2 (priority 2019, dated 2023)
Like-named read-outs stand apart in the source and are kept apart here.

Assays:
[1] = test system: A. baumannii HUMC1; test: MIC by broth microdilution (CLSI), carbapenem-resistant clinical isolate HUMC1; assay type: cell-based, Acinetobacter baumannii
Procedure: (§1) Two A. baumannii isolates were used in this example: HUMC1 (BV374) (Spellberg/Luna Laboratory, University of Southern California, Los Angeles, Calif.) and UNT091-1 (BV378) (UNT Health Science Center, Fort Worth, Tex.). The HUMC1 isolate is a hyper-virulent drug-resistant clinical strain isolated from a blood-stream infection. […] The isolates were stored at −80° C. as 20% (v/v) glycerol cultures.
(§2) MICs were determined by the broth microdilution method following the guidelines of the Clinical Laboratory Standards Institute (CLSI) using RPMI supplemented with […] cationic-adjusted Muller Hinton broth (CA-MHB) as assay medium. To prepare the bacterial inocula, 3-5 colonies of bacterial strains from over-night growth on ChromAgar orientation plates (CHROMagar Cat. No. RT412) were suspended in 5 mL saline. The turbidity of the bacterial suspension was adjusted to 0.5 McFarland units (equal to an optical density at 610 nm (OD610) to 0.08-0.1). This suspension was diluted 200-fold in RPMI supplemented with 10% (v/v) FCS to reach a final concentration of […] colony forming units (CFU)/mL and was used to inoculate the microtiter plates.
(§3) Serial 2-fold dilutions of the antibiotics were prepared in a separate 96-well plate polypropylene U-bottom plate (Ratiolab Cat. No. 6018111) in RPMI supplemented with 10% (v/v) FCS at 10-fold of the final test concentrations and 10 μl of the dilutions were transferred to new 96-well polystyrene U-bottom microtiter plates with a parafilm plate cover.
(§4) The plates were then inoculated with 90 μL per well of the prepared bacterial suspensions in using a multichannel pipette (Eppendorf), with the first column containing 4 wells each for growth control (no antibiotic). […] The MIC was recorded as the lowest concentration of the compound that inhibited bacterial growth by visual inspection. MICs were determined at least in duplicates and in the case of variations, the higher values are provided.

[2] = test system: A. baumannii UNT091; test: MIC by broth microdilution (CLSI), carbapenem-resistant clinical isolate UNT091; assay type: cell-based, Acinetobacter baumannii
Procedure: as §1, §2, §3, §4

Molecule | MIC ([1]; HUMC1, CA-MHB (Table 1)) | MIC ([1]; HUMC1, RPMI plus 10% FCS (Table 1)) | MIC ([2]; UNT091, CA-MHB (Table 1)) | MIC ([2]; UNT091, RPMI plus 10% FCS (Table 1)) | MIC ([1]; Acinetobacter baumannii, HUMC1, HUMC1, CA-MHB (Table 1), read-out: MIC) | MIC ([1]; Acinetobacter baumannii, HUMC1, HUMC1, RPMI plus 10% FCS (Table 1), read-out: MIC) | MIC ([2]; Acinetobacter baumannii, UNT091, UNT091, CA-MHB (Table 1), read-out: MIC) | MIC ([2]; Acinetobacter baumannii, UNT091, UNT091, RPMI plus 10% FCS (Table 1), read-out: MIC)
gentamicin | >16 µg/mL | >16 µg/mL | >16 µg/mL | >16 µg/mL | – | – | – | –
CO/N=C(\C(=O)N[C@@H]1C(=O)N2C(C(=O)O)=C(COC(C)=O)CS[C@H]12)c1csc(N)n1 [cefotaxime] | – | – | – | – | > 64 µg/mL | > 64 µg/mL | > 64 µg/mL | > 64 µg/mL
